In patent US20240001019A1, “MBL-COATED SUBSTRATES HAVING ANTI-THROMBOGENIC PROPERTIES” (MIRAKI INNOVATION THINK TANK LLC, priority 2020, published 2024):

Assays:
[1] = Retention of coupled FcMBL on the membrane under flow (PBS/EDTA wash fractions); assay type: physicochemical; conditions: Lot 152-04052017, Devices #1-#3, serial 45 mL fractions
Description: The FcMBL protein concentration in each sample was determined using the Pierce 660 nm assay and an FcMBL standard curve.
Three Filtrivas from Lot 152-04052017 (Devices #1, #2, and #3) were selected for analysis of their respective PBS/EDTA wash fractions to determine the extent to which the FcMBL bound to the membrane, remains bound under flow conditions. The mass of protein obtained from five serial fractions of 45 mL, three fractions from the Blood Port Output and two fractions from the subsequent Wash Buffer, was determined. […] After the second Blood Port Output, the amount of FcMBL in the subsequent fractions was undetectable (data not shown).

[2] = test system: CD62P (platelet P-selectin); test: Flow-cytometric analysis of platelet activation (CD62P on CD41a positive platelets); assay type: cell-based, human; conditions: for CD62P geometrical means of fluorescence intensity from TRAP-incubated samples: 35 μM TRAP, 20 min

| Substance | FcMBL coupled to the membrane under flow, PBS/EDTA washing [1] | CD62P geometrical means of fluorescence intensity from TRAP-incubated samples ([2]; 1st experiment) | CD62P geometrical means of fluorescence intensity from TRAP-incubated samples ([2]; 2nd experiment) | CD62P geometrical means of fluorescence intensity from TRAP-incubated samples ([2]; 3rd experiment) | CD62P geometrical means of fluorescence intensity, positive control ([2]; all experiments) |
| --- | --- | --- | --- | --- | --- |
| FcMBL: 383-amino acid human recombinant fusion protein: carbohydrate-binding and neck domains of MBL and Fc domain of human IgG1 | stays bound under flow conditions |  |  |  |  |
| thrombin receptor activating peptide [TRAP] |  | 1376 | 209 | 350 | > 200 |
